# Measured values as given in patent publication US9079859B2, “Synthetic lethal targeting of glucose transport” (AUCKLAND UNISERVICES LIMITED, priority 2011, dated 2015).
# Tests used:
# Test in all cases: Kinase Profiler
# Assay type in all cases: biochemical
# Conditions in all cases: STF-31 10 μM
# [1] = biological target: AMPK
# Experimental: (§1) Cell Culture and Reagents. All cells were grown in DMEM+10% FCS. ACHN and ACHN shVHL were a kind gift from George V. Thomas (UCLA). HIF overexpressing clones were described previously (Sutphin et al., Cancer Res, 67:5896-5905 (2007)). Transfection of RNA oligos were performed with DnarmaFECT Reagent 1 (Dharmcon), according to manufacturer's directions. ON-TARGETplus SMART pools against HIF-1 R/ARNT were purchased from Dharmacon. Inducible shRNAmir to GLUT1 was purchased from Open Biosystems. GLUT1 was detected with anti-GLUT1 antibody from NeoMarkers/LabVision/Fisher. For immunofluorescent studies, GLUT1, GLUT2, and GLUT3 antibodies were purchased from R&D. Pyruvate/lactate levels and hexokinase activity were both measured by fluorometric assay (BioVision and Sigma-Aldrich, respectively). ATP levels were measured by bioluminescence assay (ATP Determination Kit from Molecular Probes/Invitrogen). In vitro kinase activities were performed by Millipore Kinase Profiler.
# [2] = biological target: T1, ASK1 (Homo sapiens, UniProt Q99683)
# T1 construct: purchased Millipore (Kinase Profiler service)
# Experimental: as §1
# [3] = biological target: T2, Aurora-A (Homo sapiens, UniProt O14965)
# T2 construct: purchased Millipore (Kinase Profiler service)
# Experimental: as §1
# [4] = biological target: T3, Axl (Homo sapiens, UniProt P30530)
# T3 construct: purchased Millipore (Kinase Profiler service)
# Experimental: as §1
# [5] = biological target: T4, CK1γ1 (Homo sapiens, UniProt Q9HCP0)
# T4 construct: purchased Millipore (Kinase Profiler service)
# Experimental: as §1
# [6] = biological target: T5, CSK (Homo sapiens, UniProt P41240)
# T5 construct: purchased Millipore (Kinase Profiler service)
# Experimental: as §1
# [7] = biological target: T6, CaMKI (Homo sapiens, UniProt Q14012)
# T6 construct: purchased Millipore (Kinase Profiler service)
# Experimental: as §1
# [8] = biological target: T7, DAPK1 (Homo sapiens, UniProt P53355)
# T7 construct: purchased Millipore (Kinase Profiler service)
# Experimental: as §1
# [9] = biological target: T8, DYRK2 (Homo sapiens, UniProt Q92630)
# T8 construct: purchased Millipore (Kinase Profiler service)
# Experimental: as §1
# [10] = biological target: T9, EphA1 (Homo sapiens, UniProt P21709)
# T9 construct: purchased Millipore (Kinase Profiler service)
# Experimental: as §1
# [11] = biological target: T10, FGFR1 (Homo sapiens, UniProt P11362)
# T10 construct: purchased Millipore Kinase Profiler
# Experimental: as §1
# [12] = biological target: T11, Fyn (Homo sapiens, UniProt P06241)
# T11 construct: purchased Millipore Kinase Profiler
# Experimental: as §1
# [13] = biological target: T12, GSK3α (Homo sapiens, UniProt P49840)
# T12 construct: purchased Millipore Kinase Profiler
# Experimental: as §1
# [14] = biological target: T13, Hck (Homo sapiens, UniProt P08631)
# T13 construct: purchased Millipore Kinase Profiler
# Experimental: as §1
# [15] = biological target: T14, IGF-1R (Homo sapiens, UniProt P08069)
# T14 construct: purchased Millipore Kinase Profiler
# Experimental: as §1
# [16] = biological target: T15, IKKα (Homo sapiens, UniProt O15111)
# T15 construct: purchased Millipore Kinase Profiler
# Experimental: as §1
# [17] = biological target: T16, IR (Homo sapiens, UniProt P06213)
# T16 construct: purchased Millipore Kinase Profiler
# T16 sequence (P06213 28-1382): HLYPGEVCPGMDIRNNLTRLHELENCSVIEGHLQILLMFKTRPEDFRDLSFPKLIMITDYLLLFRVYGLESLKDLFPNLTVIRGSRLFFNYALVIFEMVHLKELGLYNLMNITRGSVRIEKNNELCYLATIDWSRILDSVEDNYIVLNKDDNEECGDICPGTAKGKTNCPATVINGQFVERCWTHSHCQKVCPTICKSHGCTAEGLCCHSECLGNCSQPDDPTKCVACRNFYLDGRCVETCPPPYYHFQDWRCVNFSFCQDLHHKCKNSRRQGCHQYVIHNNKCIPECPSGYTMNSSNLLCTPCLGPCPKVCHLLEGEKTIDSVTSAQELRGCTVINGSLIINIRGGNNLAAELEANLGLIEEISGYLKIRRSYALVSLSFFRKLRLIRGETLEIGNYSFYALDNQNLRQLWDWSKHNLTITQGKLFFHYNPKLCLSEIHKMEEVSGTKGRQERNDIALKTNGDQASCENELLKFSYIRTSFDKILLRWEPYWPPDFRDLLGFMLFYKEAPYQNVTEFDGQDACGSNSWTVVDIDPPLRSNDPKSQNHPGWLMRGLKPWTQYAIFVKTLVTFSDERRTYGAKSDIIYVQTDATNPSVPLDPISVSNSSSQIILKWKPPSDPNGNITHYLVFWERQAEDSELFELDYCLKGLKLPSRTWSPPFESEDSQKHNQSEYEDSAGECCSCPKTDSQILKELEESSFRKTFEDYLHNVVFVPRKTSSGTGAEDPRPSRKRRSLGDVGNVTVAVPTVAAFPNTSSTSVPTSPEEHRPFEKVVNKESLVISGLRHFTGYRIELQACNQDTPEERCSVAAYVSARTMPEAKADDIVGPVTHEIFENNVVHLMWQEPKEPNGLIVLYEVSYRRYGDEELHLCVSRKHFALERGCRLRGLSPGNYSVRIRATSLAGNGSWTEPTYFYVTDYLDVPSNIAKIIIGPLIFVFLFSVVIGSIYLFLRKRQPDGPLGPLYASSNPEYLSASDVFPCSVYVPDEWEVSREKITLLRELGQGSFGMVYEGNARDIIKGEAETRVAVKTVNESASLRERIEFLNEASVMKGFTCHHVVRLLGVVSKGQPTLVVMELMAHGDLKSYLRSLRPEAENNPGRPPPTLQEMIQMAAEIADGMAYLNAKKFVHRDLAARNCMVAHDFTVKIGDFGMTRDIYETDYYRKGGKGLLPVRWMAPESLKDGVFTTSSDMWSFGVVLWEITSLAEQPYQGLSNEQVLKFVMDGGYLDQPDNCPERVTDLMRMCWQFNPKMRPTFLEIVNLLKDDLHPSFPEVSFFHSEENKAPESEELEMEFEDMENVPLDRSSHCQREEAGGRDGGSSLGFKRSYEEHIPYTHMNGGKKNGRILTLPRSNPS
# Experimental: as §1
# [18] = biological target: T17, IRAK1 (Homo sapiens, UniProt P51617)
# T17 construct: purchased Millipore Kinase Profiler
# Experimental: as §1
# [19] = biological target: T18, JAK2 (Homo sapiens, UniProt O60674)
# T18 construct: purchased Millipore Kinase Profiler
# Experimental: as §1
# [20] = biological target: T19, MAPKAP-K2 (Homo sapiens, UniProt P49137)
# T19 construct: purchased Millipore Kinase Profiler
# T19 sequence (P49137 whole entry, species assumed): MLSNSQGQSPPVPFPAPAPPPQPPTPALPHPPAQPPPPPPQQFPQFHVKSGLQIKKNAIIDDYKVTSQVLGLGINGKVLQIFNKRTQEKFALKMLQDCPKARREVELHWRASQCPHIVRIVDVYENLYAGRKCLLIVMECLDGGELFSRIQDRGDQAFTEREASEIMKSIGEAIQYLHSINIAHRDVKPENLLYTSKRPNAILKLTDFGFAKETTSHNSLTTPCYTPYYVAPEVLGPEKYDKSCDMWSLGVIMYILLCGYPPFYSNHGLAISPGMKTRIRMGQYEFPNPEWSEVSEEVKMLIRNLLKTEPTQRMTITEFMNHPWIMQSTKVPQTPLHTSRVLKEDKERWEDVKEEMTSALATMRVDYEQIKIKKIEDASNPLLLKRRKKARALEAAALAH
# Experimental: as §1
# [21] = biological target: T20, MEK1 (Homo sapiens, UniProt Q02750)
# T20 construct: purchased Millipore Kinase Profiler
# Experimental: as §1
# [22] = biological target: T21, MKK4 (Mus musculus, UniProt P47809)
# T21 construct: purchased Millipore Kinase Profiler
# T21 sequence (P47809 2-397 limits assumed): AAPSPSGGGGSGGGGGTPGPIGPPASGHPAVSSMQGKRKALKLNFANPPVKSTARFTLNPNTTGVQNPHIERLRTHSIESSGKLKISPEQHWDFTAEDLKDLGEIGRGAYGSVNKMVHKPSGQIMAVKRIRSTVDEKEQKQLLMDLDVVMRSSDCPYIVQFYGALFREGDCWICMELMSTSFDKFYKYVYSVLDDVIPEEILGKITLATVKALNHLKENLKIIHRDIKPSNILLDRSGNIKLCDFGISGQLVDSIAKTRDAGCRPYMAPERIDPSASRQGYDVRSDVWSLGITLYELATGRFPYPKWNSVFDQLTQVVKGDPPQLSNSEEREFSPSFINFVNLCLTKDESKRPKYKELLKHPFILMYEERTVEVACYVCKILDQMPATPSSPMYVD
# Experimental: as §1
# [23] = biological target: T22, MLK1 (Homo sapiens, UniProt P80192)
# T22 construct: purchased Millipore Kinase Profiler
# Experimental: as §1
# [24] = biological target: T23, MSK1 (Homo sapiens, UniProt O75582)
# T23 construct: purchased Millipore Kinase Profiler
# T23 sequence (O75582 whole entry, species assumed): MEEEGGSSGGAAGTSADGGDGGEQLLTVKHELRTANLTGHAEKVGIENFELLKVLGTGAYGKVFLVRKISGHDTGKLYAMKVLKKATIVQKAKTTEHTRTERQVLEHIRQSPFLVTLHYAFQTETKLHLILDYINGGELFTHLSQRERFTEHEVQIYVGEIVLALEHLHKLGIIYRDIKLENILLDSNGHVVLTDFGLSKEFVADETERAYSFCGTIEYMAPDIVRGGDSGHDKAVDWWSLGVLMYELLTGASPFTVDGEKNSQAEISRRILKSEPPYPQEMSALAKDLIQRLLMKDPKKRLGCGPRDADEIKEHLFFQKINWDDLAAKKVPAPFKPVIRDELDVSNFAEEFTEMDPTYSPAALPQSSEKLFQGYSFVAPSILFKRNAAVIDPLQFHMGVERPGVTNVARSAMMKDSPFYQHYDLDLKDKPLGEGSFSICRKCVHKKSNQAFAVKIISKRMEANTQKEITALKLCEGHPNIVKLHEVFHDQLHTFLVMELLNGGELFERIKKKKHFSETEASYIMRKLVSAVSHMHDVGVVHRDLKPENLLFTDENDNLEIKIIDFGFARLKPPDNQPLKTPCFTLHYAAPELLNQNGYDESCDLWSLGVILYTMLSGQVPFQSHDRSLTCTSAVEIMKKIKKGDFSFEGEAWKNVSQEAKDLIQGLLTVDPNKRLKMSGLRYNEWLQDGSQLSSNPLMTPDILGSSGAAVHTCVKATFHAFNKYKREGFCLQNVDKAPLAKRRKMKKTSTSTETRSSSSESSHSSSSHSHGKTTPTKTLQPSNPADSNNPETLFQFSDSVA
# Experimental: as §1
# [25] = biological target: T24, Met (Homo sapiens, UniProt P08581)
# T24 construct: purchased Millipore Kinase Profiler
# Experimental: as §1
# [26] = biological target: T25, NEK2 (Homo sapiens, UniProt P51955)
# T25 construct: purchased Millipore Kinase Profiler
# Experimental: as §1
# [27] = biological target: PI3K
# Experimental: as §1
# [28] = biological target: T26, PKBα (Homo sapiens, UniProt P31749)
# T26 construct: purchased Millipore Kinase Profiler
# Experimental: as §1
# [29] = biological target: T27, PKCδ (Homo sapiens, UniProt Q05655)
# T27 construct: purchased Millipore (Kinase Profiler service)
# T27 sequence (Q05655 whole entry): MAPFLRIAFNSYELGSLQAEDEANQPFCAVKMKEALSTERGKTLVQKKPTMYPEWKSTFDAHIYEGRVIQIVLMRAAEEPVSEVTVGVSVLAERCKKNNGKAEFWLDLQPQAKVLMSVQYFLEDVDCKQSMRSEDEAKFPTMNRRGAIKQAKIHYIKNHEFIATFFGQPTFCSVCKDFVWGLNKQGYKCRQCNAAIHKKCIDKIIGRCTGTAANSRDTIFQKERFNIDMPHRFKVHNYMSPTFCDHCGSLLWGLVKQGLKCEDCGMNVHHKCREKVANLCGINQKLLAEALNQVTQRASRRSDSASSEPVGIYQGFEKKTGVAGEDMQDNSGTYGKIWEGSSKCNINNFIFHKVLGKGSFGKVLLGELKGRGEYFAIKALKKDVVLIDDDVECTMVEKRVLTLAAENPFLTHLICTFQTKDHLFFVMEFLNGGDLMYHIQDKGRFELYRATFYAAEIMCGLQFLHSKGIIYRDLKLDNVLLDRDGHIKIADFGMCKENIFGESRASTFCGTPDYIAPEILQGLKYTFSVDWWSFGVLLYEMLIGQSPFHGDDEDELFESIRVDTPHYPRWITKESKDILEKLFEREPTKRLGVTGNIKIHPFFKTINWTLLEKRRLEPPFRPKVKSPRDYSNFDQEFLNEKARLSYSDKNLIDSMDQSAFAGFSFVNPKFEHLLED
# Experimental: as §1
# [30] = biological target: T28, Pim-2 (Homo sapiens, UniProt Q9P1W9)
# T28 construct: purchased Millipore Kinase Profiler
# T28 sequence (Q9P1W9 whole entry, species assumed): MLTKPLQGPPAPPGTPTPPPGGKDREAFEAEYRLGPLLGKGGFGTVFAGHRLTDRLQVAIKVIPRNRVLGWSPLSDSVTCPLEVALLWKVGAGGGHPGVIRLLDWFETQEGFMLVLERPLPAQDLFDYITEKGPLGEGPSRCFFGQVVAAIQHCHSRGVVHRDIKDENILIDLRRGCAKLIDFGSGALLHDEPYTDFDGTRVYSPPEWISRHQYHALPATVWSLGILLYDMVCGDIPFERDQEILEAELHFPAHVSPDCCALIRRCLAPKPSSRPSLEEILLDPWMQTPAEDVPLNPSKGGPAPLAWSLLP
# Experimental: as §1
# [31] = biological target: T29, Plk3 (Homo sapiens, UniProt Q9H4B4)
# T29 construct: purchased Millipore (Kinase Profiler service)
# Experimental: as §1
# [32] = biological target: T30, ROCK-I (Homo sapiens, UniProt Q13464)
# T30 construct: purchased Millipore (Kinase Profiler service)
# Experimental: as §1
# [33] = biological target: T31, SAPK2a (Homo sapiens, UniProt Q16539)
# T31 construct: purchased Millipore (Kinase Profiler service)
# Experimental: as §1
# [34] = biological target: T32, Tie2 (Homo sapiens, UniProt Q02763)
# T32 construct: purchased Millipore (Kinase Profiler service)
# T32 sequence (Q02763 23-1124, species assumed): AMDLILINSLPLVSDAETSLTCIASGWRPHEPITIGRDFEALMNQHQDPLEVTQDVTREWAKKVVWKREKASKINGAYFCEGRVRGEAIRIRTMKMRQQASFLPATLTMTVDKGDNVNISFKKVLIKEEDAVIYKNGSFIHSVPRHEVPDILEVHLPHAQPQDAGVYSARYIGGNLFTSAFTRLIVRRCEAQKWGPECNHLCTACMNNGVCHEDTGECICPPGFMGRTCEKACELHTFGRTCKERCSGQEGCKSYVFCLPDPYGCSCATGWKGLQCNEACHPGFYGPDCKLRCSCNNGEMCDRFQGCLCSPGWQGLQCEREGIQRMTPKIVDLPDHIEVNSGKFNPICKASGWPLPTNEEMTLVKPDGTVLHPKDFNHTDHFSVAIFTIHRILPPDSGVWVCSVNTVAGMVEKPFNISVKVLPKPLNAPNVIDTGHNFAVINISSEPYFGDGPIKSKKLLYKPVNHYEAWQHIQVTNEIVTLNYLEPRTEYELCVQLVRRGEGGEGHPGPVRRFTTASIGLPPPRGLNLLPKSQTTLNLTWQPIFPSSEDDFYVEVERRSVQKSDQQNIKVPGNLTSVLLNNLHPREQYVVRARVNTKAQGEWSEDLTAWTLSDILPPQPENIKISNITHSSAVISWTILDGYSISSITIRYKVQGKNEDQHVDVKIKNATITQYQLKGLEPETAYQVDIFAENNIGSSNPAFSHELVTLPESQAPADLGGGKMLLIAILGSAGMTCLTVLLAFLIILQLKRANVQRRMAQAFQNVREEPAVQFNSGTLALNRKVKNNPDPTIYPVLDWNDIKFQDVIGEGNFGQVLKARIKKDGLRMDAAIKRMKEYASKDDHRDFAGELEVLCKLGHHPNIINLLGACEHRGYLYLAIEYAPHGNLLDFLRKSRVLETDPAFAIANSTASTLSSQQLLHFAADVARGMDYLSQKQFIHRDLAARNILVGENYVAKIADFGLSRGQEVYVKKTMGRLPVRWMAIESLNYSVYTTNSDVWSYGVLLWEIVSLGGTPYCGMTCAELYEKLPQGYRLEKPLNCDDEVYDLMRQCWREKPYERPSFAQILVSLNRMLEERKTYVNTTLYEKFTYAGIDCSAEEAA
# Experimental: as §1
# [35] = biological target: T33, TrkA (Homo sapiens, UniProt P04629)
# T33 construct: purchased Millipore (Kinase Profiler service)
# Experimental: as §1
# [36] = biological target: T34, cKit(D816H) (Homo sapiens, UniProt P10721, D816H)
# T34 construct: purchased Millipore (Kinase Profiler service)
# Experimental: as §1
# [37] = biological target: T35, cSRC (Homo sapiens, UniProt P12931)
# T35 construct: purchased Millipore (Kinase Profiler service)
# Experimental: as §1
# [38] = biological target: T36, mTOR (Homo sapiens, UniProt P42345)
# T36 construct: purchased Millipore Kinase Profiler
# Experimental: as §1
compound,measurement,setting,value
CC(C)(C)c1ccc(S(=O)(=O)NCc2ccc(C(=O)Nc3cccnc3)cc2)cc1 [STF-31],Kinase response to STF-31,[1],92
same,Kinase response to STF-31,[2],129
same,Kinase response to STF-31,[3],108
same,Kinase response to STF-31,[4],87
same,Kinase response to STF-31,[5],85
same,Kinase response to STF-31,[6],99
same,Kinase response to STF-31,[7],87
same,Kinase response to STF-31,[8],92
same,Kinase response to STF-31,[9],94
same,Kinase response to STF-31,[10],102
same,Kinase response to STF-31,[11],107
same,Kinase response to STF-31,[12],91
same,Kinase response to STF-31,[13],134
same,Kinase response to STF-31,[14],84
same,Kinase response to STF-31,[15],108
same,Kinase response to STF-31,[16],102
same,Kinase response to STF-31,[17],121
same,Kinase response to STF-31,[18],105
same,Kinase response to STF-31,[19],113
same,Kinase response to STF-31,[20],87
same,Kinase response to STF-31,[21],99
same,Kinase response to STF-31,[22],128
same,Kinase response to STF-31,[23],97
same,Kinase response to STF-31,[24],107
same,Kinase response to STF-31,[25],105
same,Kinase response to STF-31,[26],103
same,Kinase response to STF-31,[27],97
same,Kinase response to STF-31,[28],99
same,Kinase response to STF-31,[29],116
same,Kinase response to STF-31,[30],112
same,Kinase response to STF-31,[31],104
same,Kinase response to STF-31,[32],74
same,Kinase response to STF-31,[33],127
same,Kinase response to STF-31,[34],111
same,Kinase response to STF-31,[35],124
same,Kinase response to STF-31,[36],99
same,Kinase response to STF-31,[37],104
same,Kinase response to STF-31,[38],101
